{"source": "patent US6515103B1", "about": "(priority 1996, dated 2003)", "key": {"[1]": {"system": "young (<2 weeks old) mice", "details": "mouse, in vivo"}, "[2]": {"system": "young (<2 weeks old) mice", "details": "mouse, in vivo", "remark": "listed apart in the source"}, "[3]": {"system": "young (<2 weeks old) mice", "details": "mouse, in vivo", "remark": "listed apart in the source"}, "[4]": {"target": "NR1-1b/NR2B NMDA receptor subtype"}, "CF No. 1 mice": {"system": "CF No. 1 mice", "details": "mouse, in vivo; for anticonvulsant activity in CF No. 1 mice: sc"}, "[5]": {"system": "Frings audiogenic seizure-susceptible mice", "details": "mouse, in vivo"}, "NR1.1 B subtype": {"target": "T1, NR1.1 B subtype (Homo sapiens, UniProt Q05586)", "T1 construct": "expressed in transfected cells; host or cells: oocytes", "assay_type": "cell-based"}, "NR1-1b/NR2D combination": {"target": "T2, NR1-1b/NR2D combination (Homo sapiens, UniProt O15399+Q05586)", "T2 construct": "expressed in transfected cells; host or cells: oocytes", "T2 sequence (O15399 28-1336, other chains not shown)": "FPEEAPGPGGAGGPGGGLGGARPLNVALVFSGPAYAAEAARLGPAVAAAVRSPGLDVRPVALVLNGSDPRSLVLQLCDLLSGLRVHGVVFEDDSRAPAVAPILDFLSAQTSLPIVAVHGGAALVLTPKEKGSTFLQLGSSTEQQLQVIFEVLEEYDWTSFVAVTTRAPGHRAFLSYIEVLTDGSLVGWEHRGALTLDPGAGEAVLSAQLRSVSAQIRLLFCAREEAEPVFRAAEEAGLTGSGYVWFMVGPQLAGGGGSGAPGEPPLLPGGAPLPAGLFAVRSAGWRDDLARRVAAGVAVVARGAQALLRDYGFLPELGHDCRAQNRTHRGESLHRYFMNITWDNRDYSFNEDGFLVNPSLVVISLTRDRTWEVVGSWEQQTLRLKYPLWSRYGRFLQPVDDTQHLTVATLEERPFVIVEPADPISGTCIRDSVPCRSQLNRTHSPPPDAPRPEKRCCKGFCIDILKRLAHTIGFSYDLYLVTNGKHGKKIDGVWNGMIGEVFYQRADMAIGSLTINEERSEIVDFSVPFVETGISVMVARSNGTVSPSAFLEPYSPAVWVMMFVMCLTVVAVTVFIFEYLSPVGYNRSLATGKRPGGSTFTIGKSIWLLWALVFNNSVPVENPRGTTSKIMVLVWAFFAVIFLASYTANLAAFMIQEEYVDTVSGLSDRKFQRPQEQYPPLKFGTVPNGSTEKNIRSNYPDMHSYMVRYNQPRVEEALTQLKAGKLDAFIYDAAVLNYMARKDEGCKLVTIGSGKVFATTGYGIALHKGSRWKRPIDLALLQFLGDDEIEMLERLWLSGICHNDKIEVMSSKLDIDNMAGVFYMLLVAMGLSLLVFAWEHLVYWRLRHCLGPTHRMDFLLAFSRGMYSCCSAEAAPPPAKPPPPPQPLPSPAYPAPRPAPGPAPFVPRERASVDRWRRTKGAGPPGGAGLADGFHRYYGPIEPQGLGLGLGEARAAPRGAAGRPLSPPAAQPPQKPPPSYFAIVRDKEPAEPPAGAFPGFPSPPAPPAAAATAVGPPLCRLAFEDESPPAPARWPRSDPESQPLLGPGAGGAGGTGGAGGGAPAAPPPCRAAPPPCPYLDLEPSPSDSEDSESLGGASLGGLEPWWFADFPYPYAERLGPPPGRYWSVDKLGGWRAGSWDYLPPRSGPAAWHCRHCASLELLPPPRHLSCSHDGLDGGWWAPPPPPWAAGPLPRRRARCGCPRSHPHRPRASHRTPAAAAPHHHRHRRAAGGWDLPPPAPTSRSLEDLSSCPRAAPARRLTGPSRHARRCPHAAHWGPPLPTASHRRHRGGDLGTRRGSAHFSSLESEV", "assay_type": "cell-based"}, "CF #1 Mice": {"system": "CF #1 Mice", "details": "mouse, in vivo"}, "AMPA receptor GluR1": {"target": "AMPA receptor GluR1 (Homo sapiens, UniProt P42261)", "sequence (P42261 19-906)": "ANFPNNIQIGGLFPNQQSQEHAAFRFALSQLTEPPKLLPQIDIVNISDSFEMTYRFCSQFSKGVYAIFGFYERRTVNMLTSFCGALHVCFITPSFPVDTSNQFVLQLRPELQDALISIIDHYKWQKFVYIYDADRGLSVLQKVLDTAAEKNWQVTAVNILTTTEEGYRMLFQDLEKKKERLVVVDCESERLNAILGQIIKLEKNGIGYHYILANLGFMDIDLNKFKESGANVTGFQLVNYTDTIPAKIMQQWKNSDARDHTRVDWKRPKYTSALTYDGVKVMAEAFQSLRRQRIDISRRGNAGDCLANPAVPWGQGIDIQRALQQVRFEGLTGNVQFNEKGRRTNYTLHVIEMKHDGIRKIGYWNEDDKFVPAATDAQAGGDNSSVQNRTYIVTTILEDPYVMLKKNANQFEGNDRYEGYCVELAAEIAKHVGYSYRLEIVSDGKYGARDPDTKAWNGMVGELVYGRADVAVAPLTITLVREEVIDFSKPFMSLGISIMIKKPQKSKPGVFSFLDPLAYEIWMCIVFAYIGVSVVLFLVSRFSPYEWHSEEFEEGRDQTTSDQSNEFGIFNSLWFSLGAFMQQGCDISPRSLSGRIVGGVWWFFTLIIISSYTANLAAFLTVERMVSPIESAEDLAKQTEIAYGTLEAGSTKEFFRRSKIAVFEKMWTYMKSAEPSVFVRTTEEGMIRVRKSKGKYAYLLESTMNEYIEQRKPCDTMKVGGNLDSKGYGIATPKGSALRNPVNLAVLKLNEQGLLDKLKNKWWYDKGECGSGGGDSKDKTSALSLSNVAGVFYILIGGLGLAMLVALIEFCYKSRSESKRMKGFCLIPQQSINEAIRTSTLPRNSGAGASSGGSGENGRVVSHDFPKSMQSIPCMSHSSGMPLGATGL", "assay_type": "cell-based"}, "NR1 A subtype": {"target": "T3, NR1 A subtype (Homo sapiens, UniProt Q05586)", "T3 construct": "expressed in transfected cells; host or cells: oocytes", "assay_type": "cell-based"}, "[6]": {"system": "Frings audiogenic seizure-susceptible mice", "details": "mouse, in vivo", "remark": "listed apart in the source"}, "[7]": {"target": "kainate receptors (GluR6) (Homo sapiens, UniProt Q13002)", "sequence (Q13002 32-908, species assumed)": "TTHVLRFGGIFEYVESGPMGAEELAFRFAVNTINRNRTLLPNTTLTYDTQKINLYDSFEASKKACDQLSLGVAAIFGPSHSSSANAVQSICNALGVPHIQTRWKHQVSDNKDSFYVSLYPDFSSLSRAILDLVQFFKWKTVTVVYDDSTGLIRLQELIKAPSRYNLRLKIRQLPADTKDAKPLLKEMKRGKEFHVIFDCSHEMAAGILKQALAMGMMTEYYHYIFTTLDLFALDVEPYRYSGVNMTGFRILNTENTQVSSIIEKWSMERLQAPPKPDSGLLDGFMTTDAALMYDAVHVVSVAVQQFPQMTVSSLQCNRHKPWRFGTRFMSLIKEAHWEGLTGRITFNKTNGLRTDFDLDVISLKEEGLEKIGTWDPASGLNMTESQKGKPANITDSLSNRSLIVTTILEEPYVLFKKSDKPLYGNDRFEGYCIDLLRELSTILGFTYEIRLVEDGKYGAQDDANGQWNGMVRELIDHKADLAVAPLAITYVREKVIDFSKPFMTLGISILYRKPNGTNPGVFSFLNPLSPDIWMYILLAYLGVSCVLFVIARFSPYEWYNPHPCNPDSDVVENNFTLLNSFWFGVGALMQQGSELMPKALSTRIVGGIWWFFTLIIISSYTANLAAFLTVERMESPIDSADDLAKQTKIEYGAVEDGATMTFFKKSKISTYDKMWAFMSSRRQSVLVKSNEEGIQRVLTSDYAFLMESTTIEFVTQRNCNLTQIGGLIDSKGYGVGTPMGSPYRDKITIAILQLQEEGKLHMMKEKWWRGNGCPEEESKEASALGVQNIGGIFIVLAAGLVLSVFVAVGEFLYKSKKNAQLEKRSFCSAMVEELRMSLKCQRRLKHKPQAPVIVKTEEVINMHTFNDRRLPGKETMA", "assay_type": "cell-based"}, "NR1-1b/NR2B NMDA subtype [8]": {"system": "NR1-1b/NR2B NMDA subtype", "assay": "cell-based"}, "NR1-1b/NR2B NMDA subtype [9]": {"target": "T4, NR1-1b/NR2B NMDA subtype (Homo sapiens, UniProt Q05586+Q13224)", "T4 construct": "expressed in transfected cells; host or cells: oocytes", "T4 sequence (Q13224 27-1484, other chains not shown)": "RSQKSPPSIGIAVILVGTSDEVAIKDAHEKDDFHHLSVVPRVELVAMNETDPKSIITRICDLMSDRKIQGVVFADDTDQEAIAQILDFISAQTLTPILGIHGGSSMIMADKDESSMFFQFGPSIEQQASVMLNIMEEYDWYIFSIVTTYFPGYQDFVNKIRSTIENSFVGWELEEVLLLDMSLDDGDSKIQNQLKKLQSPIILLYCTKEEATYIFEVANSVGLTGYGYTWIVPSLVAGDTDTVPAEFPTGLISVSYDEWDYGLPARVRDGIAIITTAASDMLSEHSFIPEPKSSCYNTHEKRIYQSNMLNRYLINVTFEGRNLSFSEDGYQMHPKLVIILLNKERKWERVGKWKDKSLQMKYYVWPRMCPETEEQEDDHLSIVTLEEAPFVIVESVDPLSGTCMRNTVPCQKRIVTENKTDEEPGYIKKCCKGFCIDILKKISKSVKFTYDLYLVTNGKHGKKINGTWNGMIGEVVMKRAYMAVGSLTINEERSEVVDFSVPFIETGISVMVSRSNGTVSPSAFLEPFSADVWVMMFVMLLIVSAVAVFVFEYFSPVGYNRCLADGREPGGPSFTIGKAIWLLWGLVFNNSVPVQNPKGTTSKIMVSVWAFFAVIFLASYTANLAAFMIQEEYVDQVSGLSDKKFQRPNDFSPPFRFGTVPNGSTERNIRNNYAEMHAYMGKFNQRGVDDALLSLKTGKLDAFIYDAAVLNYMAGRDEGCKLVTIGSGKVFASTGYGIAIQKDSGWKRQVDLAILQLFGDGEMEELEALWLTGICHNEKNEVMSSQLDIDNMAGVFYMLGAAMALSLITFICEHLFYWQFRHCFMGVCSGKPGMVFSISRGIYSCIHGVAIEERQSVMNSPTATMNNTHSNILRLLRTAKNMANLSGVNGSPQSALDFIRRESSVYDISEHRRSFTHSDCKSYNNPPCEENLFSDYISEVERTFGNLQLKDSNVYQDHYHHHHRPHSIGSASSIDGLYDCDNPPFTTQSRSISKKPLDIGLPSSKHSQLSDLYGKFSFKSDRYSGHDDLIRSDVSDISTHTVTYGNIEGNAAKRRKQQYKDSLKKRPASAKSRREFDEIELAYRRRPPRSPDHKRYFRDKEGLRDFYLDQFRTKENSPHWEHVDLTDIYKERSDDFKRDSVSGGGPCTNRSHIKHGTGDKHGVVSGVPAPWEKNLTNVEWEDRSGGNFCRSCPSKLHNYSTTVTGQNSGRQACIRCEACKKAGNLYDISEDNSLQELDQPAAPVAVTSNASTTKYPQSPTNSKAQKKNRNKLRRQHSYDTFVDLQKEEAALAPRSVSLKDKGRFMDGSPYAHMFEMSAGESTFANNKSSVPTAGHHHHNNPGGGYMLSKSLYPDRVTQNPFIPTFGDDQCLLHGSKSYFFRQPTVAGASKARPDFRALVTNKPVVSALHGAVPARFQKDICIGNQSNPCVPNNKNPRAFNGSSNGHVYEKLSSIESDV", "assay": "cell-based"}, "NMDA receptor [10]": {"target": "NMDA receptor", "assay": "spermine-stimulated [3H]MK-801 binding assay, inhibition"}, "NMDA receptor [11]": {"target": "NMDA receptor"}}, "note": "pIC50, pKi: −log10 of the molar value. Values joined by “and” are separate entries in the source; they are usually repeats but may differ in a detail not shown here. Equal entries are not always repeated. Where two headings read alike, the source gives them in different places. Marks after values point to notes of the source that are not given here. Where a SMILES comes first, the peptide text is derived from it. [ ]: non-standard residue; d: D form. Gla = N[C@@H](CC(C(=O)O)C(=O)O)C(=O)O"}
{"compound": "Conantokin Oc [Con Oc]", "values": [{"measurement": "Sleepy Test, positive/tested", "setting": "[1]", "result": "2/3 and 0/3"}, {"measurement": "Catalepsy Test, positive/tested", "setting": "[2]", "result": "0/3"}, {"measurement": "Righting Reflex, positive/tested", "setting": "[3]", "result": "0/3"}]}
{"compound": "Conantokin R (peptide)", "values": [{"measurement": "pKi", "setting": "[4]", "result": 6.85}]}
{"compound": "Conantokin Qu [Con Qu]", "values": [{"measurement": "anticonvulsant activity in CF No. 1 mice", "setting": "CF No. 1 mice", "result": "anticonvulsant activity"}]}
{"compound": "Conatokin L [Con L]", "values": [{"measurement": "Sleepy Test, positive/tested", "setting": "[1]", "result": "4/4"}, {"measurement": "anticonvulsant activity in CF No. 1 mice", "setting": "CF No. 1 mice", "result": "anticonvulsant activity"}, {"measurement": "Catalepsy Test, positive/tested", "setting": "[2]", "result": "4/4 and 3/4"}, {"measurement": "Righting Reflex, positive/tested", "setting": "[3]", "result": "2/4 and 3/4"}]}
{"compound": "Conantokin Gm [Con Gm]", "values": [{"measurement": "anticonvulsant activity in CF No. 1 mice", "setting": "CF No. 1 mice", "result": "anticonvulsant activity"}]}
{"compound": "Conantokin S1 [Con S1]", "values": [{"measurement": "anticonvulsant activity in CF No. 1 mice", "setting": "CF No. 1 mice", "result": "anticonvulsant activity"}]}
{"compound": "CC[C@H](C)[C@H](NC(=O)[C@H](CC(N)=O)NC(=O)[C@H](CC(C(=O)O)C(=O)O)NC(=O)[C@H](CCCNC(=N)N)NC(=O)[C@H](C)NC(=O)[C@H](CC(C)C)NC(=O)[C@H](CC(C(=O)O)C(=O)O)NC(=O)[C@H](C)NC(=O)[C@H](C)NC(=O)[C@H](CCSC)NC(=O)[C@H](CCCCN)NC(=O)[C@H](C)NC(=O)[C@@H](NC(=O)[C@H](CC(C(=O)O)C(=O)O)NC(=O)[C@H](CC(C(=O)O)C(=O)O)NC(=O)[C@H](CCC(=O)O)NC(=O)CN)C(C)C)C(=O)N[C@@H](C)C(=O)N[C@@H](CCCCN)C(=O)NCC(=O)N[C@H]1CSSC[C@@H](C(=O)N[C@@H](Cc2ccc(O)cc2)C(=O)N2CCC[C@H]2C(=O)O)NC(=O)[C@H](CC(N)=O)NC(=O)[C@H](C(C)C)NC(=O)[C@H](CCCCN)NC1=O", "note": "[Con R, Conantokin R]", "values": [{"measurement": "TD50", "setting": "[5]", "result": 164, "unit": "pmol"}, {"measurement": "inhibition of homomeric NR1 complex, NR1.1 B subtype", "setting": "NR1.1 B subtype", "result": "only inhibited the NR1.1 B subtype"}, {"measurement": "effect on NR1-1b/NR2D combination", "setting": "NR1-1b/NR2D combination", "result": "not affected"}, {"measurement": "TD50", "setting": "CF #1 Mice", "result": "˜0.300 nmols"}, {"measurement": "Sleepy Test, positive/tested", "setting": "[1]", "result": "2/3"}, {"measurement": "MES ED50", "setting": "CF No. 1 mice", "result": 0.083, "unit": "nmols"}, {"measurement": "P.I.", "setting": "CF No. 1 mice", "result": 3.6}, {"measurement": "anticonvulsant activity in CF No. 1 mice", "setting": "CF No. 1 mice", "result": "anticonvulsant activity"}, {"measurement": "Catalepsy Test, positive/tested", "setting": "[2]", "result": "2/3"}, {"measurement": "inhibition of AMPA receptor GluR1", "setting": "AMPA receptor GluR1", "result": "not to inhibit"}, {"measurement": "inhibition of homomeric NR1 complex, A subtype", "setting": "NR1 A subtype", "result": "no effect"}, {"measurement": "# Protected/# Tested", "setting": "[6]", "result": "4/4"}, {"measurement": "ED50", "setting": "[6]", "result": "0.013^c nmols and 0.013 nmols"}, {"measurement": "ED50 (pmol, i.c.v.)", "setting": "[6]", "result": "9 pmol and 9.00 pmol"}, {"measurement": "P.I.", "setting": "[6]", "result": 17}, {"measurement": "Protective Index, PI (TD50/ED50)", "setting": "[6]", "result": 18}, {"measurement": "antiseizure activity relative to valproic acid", "setting": "[6]", "result": "greater than 400,000 fold"}, {"measurement": "protective index relative to valproic acid", "setting": "[6]", "result": "at least eight times better"}, {"measurement": "Righting Reflex, positive/tested", "setting": "[3]", "result": "2/3"}, {"measurement": "inhibition of kainate receptors (GluR6)", "setting": "[7]", "result": "not to inhibit"}, {"measurement": "affinity for NR1-1b/NR2B relative to NR1-1b/NR2D", "setting": "NR1-1b/NR2B NMDA subtype [8]", "result": "greater than 50 fold"}, {"measurement": "selectivity for the B splice variant of NR1 in heteromeric complexes", "setting": "NR1-1b/NR2B NMDA subtype [8]", "result": "selective for the B splice variant"}, {"measurement": "inhibition of heteromeric NR1:NR2B complexes with B splice variant of NR1", "setting": "NR1-1b/NR2B NMDA subtype [9]", "result": "inhibited"}, {"measurement": "inhibition at 3 µM", "setting": "NR1-1b/NR2B NMDA subtype [9]; read-out: inhibition of the current produced by the NR1-1b/NR2B NMDA subtype in response to glutamate and glycine", "result": "~95", "unit": "%"}]}
{"compound": "Conantokin G (peptide)", "values": [{"measurement": "pIC50", "setting": "NMDA receptor [10]", "result": 6.71}, {"measurement": "pIC50", "setting": "NMDA receptor [11]", "result": 6.71}]}
{"compound": "A^7 Con G (peptide)", "values": [{"measurement": "pIC50", "setting": "NMDA receptor [10]", "result": 7.35}]}
{"compound": "CSCC[C@H](NC(=O)[C@H](CCCCN)NC(=O)[C@H](CCC(N)=O)NC(=O)[C@H](Cc1ccc(O)cc1)NC(=O)[C@H](CC(C(=O)O)C(=O)O)NC(=O)[C@H](CC(C(=O)O)C(=O)O)NC(=O)[C@H](CCC(=O)O)NC(=O)CN)C(=O)N[C@@H](CC(C)C)C(=O)N[C@@H](CC(C(=O)O)C(=O)O)C(=O)N[C@@H](CC(N)=O)C(=O)N[C@@H](CC(C)C)C(=O)N[C@@H](CCCNC(=N)N)C(=O)N[C@@H](CC(C(=O)O)C(=O)O)C(=O)N[C@@H](C)C(=O)N[C@@H](CCC(=O)O)C(=O)N[C@H](C(=O)N[C@@H](CCCCN)C(=O)N[C@@H](CCCCN)C(=O)N[C@@H](CC(N)=O)C(=O)N[C@@H](C)C(N)=O)C(C)C", "note": "[Con T, Conantokin T] (H-GE[Gla][Gla]YQKML[Gla]NLR[Gla]AEVKKNA-NH2)", "values": [{"measurement": "TD50", "setting": "[5]", "result": 0.228, "unit": "nmols"}, {"measurement": "behavioral toxicity, rotorod test", "setting": "[5]; iv, 12 mg/kg", "result": "No animals exhibited behavioral toxicity"}, {"measurement": "P.I.", "setting": "[6]", "result": 13}]}
